As a reminder, the Ki is a dissociation constant, usually derived from enzyme kinetics or from competition with a known ligand.

The values below come from patent US20050209278A1, “Piperidinyl- and piperazinyl-sulfonylmethyl hydroxamic acids and their use as protease inhibitors” (priority 2002, published 2005).

Where two headings read alike, the source gives them in different places. Where only a bound is given, the exact number is not on record here.

For one assay, the target named is T1, MMP-14 (Homo sapiens, UniProt P50281).
T1 construct: The catalytic domain enzyme was expressed in E. coli inclusion bodies, solubilized in urea; made in house
The assay can be described thus: In vitro MMP inhibition, Ki determination (fluorogenic substrate II). In kind it is biochemical. Particulars: read-out: MMP-14 Ki. In a few lines:
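Apparent Ki was fitted with Morrison's equation from reaction rates at a single low enzyme level. Enzyme was APMA- or trypsin-activated refolded MMP-14 catalytic domain, buffered at pH 7.5 with 10 mM CaCl2.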

Another assay addresses T2, MMP-2 (Homo sapiens, UniProt P08253).
T2 construct: made in house; host or cells: MMP-2-transfected p2AHT2 cells
T2 sequence (P08253 110-660): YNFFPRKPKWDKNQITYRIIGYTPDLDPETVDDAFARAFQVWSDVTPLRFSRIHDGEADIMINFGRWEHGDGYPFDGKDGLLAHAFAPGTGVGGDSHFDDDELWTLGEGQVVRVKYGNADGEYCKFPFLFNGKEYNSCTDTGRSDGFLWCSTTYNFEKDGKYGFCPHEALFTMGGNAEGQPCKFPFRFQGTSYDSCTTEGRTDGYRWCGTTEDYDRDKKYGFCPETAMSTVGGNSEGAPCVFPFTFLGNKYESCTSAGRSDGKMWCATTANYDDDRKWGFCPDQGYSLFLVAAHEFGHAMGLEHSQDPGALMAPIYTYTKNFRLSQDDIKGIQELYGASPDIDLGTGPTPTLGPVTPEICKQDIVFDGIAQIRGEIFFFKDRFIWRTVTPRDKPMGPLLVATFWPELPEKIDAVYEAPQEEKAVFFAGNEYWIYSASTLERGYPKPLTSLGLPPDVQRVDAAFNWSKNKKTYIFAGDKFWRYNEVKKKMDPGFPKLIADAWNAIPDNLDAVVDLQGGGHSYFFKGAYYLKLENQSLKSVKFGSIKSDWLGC
The description is as above. Type of assay: biochemical. Particulars: read-out: MMP-2 Ki.

For `O=C(NO)C1(S(=O)(=O)N2CCC(COCc3ccc(OC(F)(F)F)cc3)CC2)CCOCC1` [Example 404], the Ki at MMP-14 (value outside parentheses) amounted to 71.8 nM; on MMP-2 (value outside parentheses), 1.41 nM.

In the case of `O=C(NO)C1(S(=O)(=O)N2CCC(c3ccc(-c4cccc(F)c4)cn3)CC2)CCOCC1` [Example 417], the figures for the Ki at MMP-14 (value outside parentheses) and at MMP-2 (value outside parentheses) were 1300 nM and 4.13 nM, respectively.

On to `O=C(NO)C1(S(=O)(=O)N2CCC(c3ccc(-c4cccs4)c(F)c3)CC2)CCOCC1` [Example 407], for which the Ki on MMP-14 (value outside parentheses) worked out at 3030 nM; at MMP-2 (value outside parentheses) it was 0.361 nM.

Turning to `CCCCCC/C=C/C1CCN(S(=O)(=O)C2(C(=O)NO)CCOCC2)CC1` [Example 402], on MMP-2 (value outside parentheses), the inhibition constant (Ki) is 0.83 nM.

Regarding `O=C(NO)C1(S(=O)(=O)N2CCC(COCc3ccc(SC(F)(F)F)cc3)CC2)CCOCC1` [Example 405], the Ki was found to be 95.7 nM on MMP-14 (value outside parentheses) and 1.27 nM on MMP-2 (value outside parentheses).

Consider `O=C(NO)C1(S(=O)(=O)N2CCC(c3ccc(OCCC(F)(F)F)cn3)CC2)CCOCC1` [Example 418], for which the results for the inhibition constant Ki at MMP-14 (value outside parentheses) and at MMP-2 (value outside parentheses) were 5360 nM and 0.97 nM, respectively.

Consider `CCCCOc1ccc(C2CCN(S(=O)(=O)C3(C(=O)NO)CCOCC3)CC2)nc1` [Example 410], for which the Ki on MMP-14 (value outside parentheses) turned out to be 1360 nM; on MMP-2 (value outside parentheses), 0.55 nM.

Consider `CCc1ccc(-c2ccc(C3CCN(S(=O)(=O)C4(C(=O)NO)CCOCC4)CC3)nc2)cc1` [Example 393], for which the figures for the inhibitory constant (Ki) on MMP-14 (value outside parentheses) and at MMP-2 (value outside parentheses) were 194 nM and 2.23 nM, respectively.

As for `Cc1cccc(-c2csc(N3CCN(S(=O)(=O)C4(C(=O)NO)CCOCC4)CC3)n2)c1` [Example 413], the Ki at MMP-14 (value outside parentheses) is greater than 10000 nM; at MMP-2 (value outside parentheses), 6010 nM.

On to `CCCC#Cc1cnc(N2CCN(S(=O)(=O)C3(C(=O)NO)CCOCC3)CC2)s1` [Example 400], for which the Ki at MMP-14 (value outside parentheses) stood at 724 nM; on MMP-2 (value outside parentheses), 0.71 nM.

With `O=C(NO)C1(S(=O)(=O)N2CCN(c3ccc(-c4nn[nH]n4)cc3)CC2)CCOCC1` [Example 419], the values for the inhibition constant Ki at MMP-14 (value outside parentheses) and on MMP-2 (value outside parentheses) were greater than 10000 nM and 27.9 nM, respectively.

As to `CCC(F)(F)CCc1ccc(C2CCN(S(=O)(=O)C3(C(=O)NO)CCOCC3)CC2)cn1` [Example 411], the Ki is greater than 10000 nM at MMP-14 (value outside parentheses) and 15.3 nM at MMP-2 (value outside parentheses).

As to `CCCCc1ccc(C2CCN(S(=O)(=O)C3(C(=O)NO)CCN(CCOC)CC3)CC2)nc1` [Example 397], the results for the Ki on MMP-14 (value outside parentheses) and at MMP-2 (value outside parentheses) were 2920 nM and 0.69 nM, respectively.

On to `O=C(NO)C1(S(=O)(=O)N2CCN(c3nc(-c4ccccc4)cs3)CC2)CCOCC1` [Example 415], for which the Ki at MMP-14 (value outside parentheses) is greater than 10000 nM; at MMP-2 (value outside parentheses), 2880 nM.

For the compound `O=C(NO)C1(S(=O)(=O)N2CCC(COCc3ccc(C(F)(F)F)cc3)CC2)CCOCC1` [Example 403], the inhibition constant Ki at MMP-14 (value outside parentheses) was determined as 129 nM; at MMP-2 (value outside parentheses), 4.96 nM.

With `O=C(NO)C1(S(=O)(=O)N2CCN(c3ncc(-c4ccc(Cl)cc4)cn3)CC2)CCOCC1` [Example 66], the results for the Ki on MMP-14 (value not in parenthesis) and on MMP-2 (value not in parenthesis) were 1120 nM and 2.52 nM, respectively.

For `Cc1ccc(-c2csc(N3CCN(S(=O)(=O)C4(C(=O)NO)CCOCC4)CC3)n2)cc1` [Example 412], the Ki on MMP-14 (value outside parentheses) and at MMP-2 (value outside parentheses) was greater than 10000 nM in each case.

As to `CCCCCCCOC1CCN(S(=O)(=O)C2(C(=O)NO)CCOCC2)CC1` [Example 406], the Ki amounted to 1190 nM at MMP-14 (value outside parentheses) and 1.76 nM on MMP-2 (value outside parentheses).

`O=C(NO)C1(S(=O)(=O)N2CCC(c3ccc(-c4ccccn4)cn3)CC2)CCOCC1` [Example 409]: the inhibitory constant (Ki) on MMP-14 (value outside parentheses) amounted to 1770 nM; on MMP-2 (value outside parentheses), 24.3 nM.

For the compound `CCCCc1ccc(C2(O)CCN(S(=O)(=O)C3(C(=O)NO)CCOCC3)CC2)nc1` [Example 420], the inhibition constant Ki at MMP-14 (value outside parentheses) is greater than 10000 nM; at MMP-2 (value outside parentheses), 181 nM.

As for `CCCCCC/C=C\C1CCN(S(=O)(=O)C2(C(=O)NO)CCOCC2)CC1` [Example 401], the Ki on MMP-14 (value outside parentheses) was 2720 nM; on MMP-2 (value outside parentheses), 12.8 nM.

As to `O=C(NO)C1(S(=O)(=O)N2CCC(c3ccc(OCc4ccccc4)cn3)CC2)CCOCC1` [Example 398], the inhibitory constant (Ki) at MMP-14 (value outside parentheses) was determined as 514 nM; on MMP-2 (value outside parentheses), 1.31 nM.

Regarding `CCCCc1cnc(N2CCN(S(=O)(=O)C3(C(=O)NO)CCOCC3)CC2)nc1` [Example 105], the Ki on MMP-14 (value not in parenthesis) amounted to 1660 nM; on MMP-2 (value not in parenthesis), 2.94 nM.

`N#Cc1ccc(-c2cnc(N3CCN(S(=O)(=O)C4(C(=O)NO)CCOCC4)CC3)s2)cc1` [Example 399]: the inhibition constant (Ki) on MMP-14 (value outside parentheses) came out at 9.69 nM; on MMP-2 (value outside parentheses), 0.05 nM.

Consider `O=C(NO)C1(S(=O)(=O)N2CCC(c3ccc(N4CCCC4)cn3)CC2)CCOCC1` [Example 408], for which the Ki on MMP-14 (value outside parentheses) was 1050 nM; at MMP-2 (value outside parentheses) it was 6.48 nM.

Regarding `CCCCc1ccc(N2CCN(S(=O)(=O)C3(C(=O)NO)CCOCC3)CC2)nc1` [Example 168], the inhibition constant Ki stood at 534 nM at MMP-14 (value not in parenthesis) and 0.15 nM on MMP-2 (value not in parenthesis).

In the case of `Cc1ccc(-c2ccc(C3CCN(S(=O)(=O)C4(C(=O)NO)CCOCC4)CC3)nc2)s1` [Example 416], the values for the inhibition constant (Ki) at MMP-14 (value outside parentheses) and on MMP-2 (value outside parentheses) were 506 nM and 2.07 nM, respectively.
